Assay results published in article PMC10791089, “Identification and evaluation of antiviral activity of novel compounds targeting SARS-CoV-2 virus by enzymatic and antiviral assays, and computational analysis” (Journal of Enzyme Inhibition and Medicinal Chemistry, 2024).
Values joined by “and” are separate entries in the source; they are usually repeats but may differ in a detail not shown here. Equal values may be shown once. Read-outs that look alike come from different tables or passages of the source.

How the values were obtained:
[1] = system: VERO-E6, Caco-2, PK-15, and A549 cells; assay: Cell viability MTT assay, averaged over screened cell lines; details: concentration causing >40% reduction in number of viable cells, 72 h, 0.5-30 µM, n/o = no cytotoxic effect observed within the concentration range
SARS-CoV-2 M^pro = SARS-CoV-2 M^pro (Severe acute respiratory syndrome coronavirus 2, UniProt P0DTD1); assay: biochemical
SARS-CoV-2 PL^pro [2] = biological target: T1, SARS-CoV-2 PL^pro (Severe acute respiratory syndrome coronavirus 2, UniProt P0DTD1); assay: biochemical
[3] = system: SARS-CoV-2 strain Slovakia/SK-BMC5/2020; assay: microbe, parasite or virus in culture; assay type: cell-based
SARS-CoV-2 PL^pro [4] = biological target: T1, SARS-CoV-2 PL^pro; assay: biochemical; assay type: biochemical
VERO-E6 cells = assay: Cell viability MTT assay in VERO-E6 cells; assay type: cell-based, African Green Monkey; details: VERO-E6 cell line, 72 h
PL^pro = details: read-out: IC50 deubiquitinase activity; drug repurposing study; cited from earlier work
[5] = system: severe COVID-19 and hospitalisation; parameters: method as in PMID 34726479; details: treatment started during the first days after appearance of symptoms; cited from earlier work
[6] = protease activity, 4 h at room temperature, 1 mM DTT, read-out: IC50 Enzyme assay PA M^pro
[7] = deubiquitinase activity, 1 h at 37 °C, 1 mM DTT, read-out: IC50 Enzyme assay DUA PL^pro
[8] = Severe acute respiratory syndrome coronavirus 2, Vero C1008, 72 h, read-out: EC50 Plaque reduction assay
[9] = protease activity, 1 h at 37 °C, 1 mM DTT, read-out: IC50 Enzyme assay PA PL^pro
[10] = Severe acute respiratory syndrome coronavirus 2, Vero C1008, VERO-E6 cells, MOI 1.0, 72 h, 0.1-30 µM, n/o = no antiviral effect observed within the concentration range, read-out: EC50 Plaque reduction assay
[11] = Severe acute respiratory syndrome coronavirus 2, Vero C1008, read-out: EC50 from the sigmoidal model (Figure 3 B1-B5)
[12] = read-out: IC50 Enzyme assay PA PL^pro, protease activity, 1 h at 37 °C, 1 mM DTT
[13] = VERO-E6 cells, MOI 1.0, 72 h, 0.1-30 µM, n/o = no antiviral effect observed within the concentration range

## N#CSc1cc(SC#N)c(N)nc1N [Compound C4, PR-619, reference compound]
[1]
  CTE Cell viability MTT assay: >10.0 µM
[1]; listed as PR-619
  CTE Cell viability MTT assay: 5 to 10 µM
SARS-CoV-2 M^pro; [6]
  IC50: 0.7 µM
SARS-CoV-2 PL^pro [2]; [7]
  IC50: 0.2 µM
[3]; [8]
  EC50: 9 µM
SARS-CoV-2 PL^pro [4]; [9]
  IC50: 0.1 µM

## CCC(CC)COC(=O)[C@H](C)N[P@](=O)(OC[C@H]1O[C@@](C#N)(c2ccc3c(N)ncnn23)[C@H](O)[C@@H]1O)Oc1ccccc1 [Compound C8, Remdesivir, reference compound]
[1]
  CTE Cell viability MTT assay: n/o
[3]; [10]
  EC50: 1.8 µM

## Cc1ccc(N)cc1C(=O)N[C@H](C)c1cccc2ccccc12 [Compound C9, GRL0617, reference compound]
[3]; VERO-E6 cells, MOI 1.0, 72 h, 0.1-30 µM, n/o = no antiviral effect observed within the concentration range, read-out: EC50 Plaque reduction assay
  EC50: 2.5 µM

## CC(C)C[C@@H](NC(=O)OCc1ccccc1)C(=O)N[C@@H](CC1CCNC1=O)C(O)S(=O)(=O)O (stereo partly drawn) [Compound C10, GC376, reference compound]
[3]; [10]
  EC50: 1 µM

## O=C1/C(=C/c2ccc([N+](=O)[O-])cc2)CC(O)C/C1=C\c1ccc([N+](=O)[O-])cc1 (stereo not drawn) [Compound T97]
[1]
  CTE Cell viability MTT assay: >5.0 µM
SARS-CoV-2 M^pro
  IC50: > 100 µM
SARS-CoV-2 PL^pro [2]
  IC50: > 100 µM
VERO-E6 cells
  CTE in VERO-E6 cells: approximately 5 µM
SARS-CoV-2 PL^pro [4]
  IC50: > 100 µM

## NCCCNC(=O)OC1C/C(=C\c2ccc([N+](=O)[O-])cc2)C(=O)/C(=C/c2ccc([N+](=O)[O-])cc2)C1 (stereo not drawn) [Compound T98]
[1]
  CTE Cell viability MTT assay: >15.0 to 30.0 µM
SARS-CoV-2 M^pro
  IC50: > 100 µM
[3]; [8]
  EC50: 6.7 µM
[3]; [11]
  EC50: 6.69 µM
VERO-E6 cells
  CTE in VERO-E6 cells: > 15 µM and 10 to 15 µM
SARS-CoV-2 PL^pro [4]; [12]
  IC50: < 100 µM

## CC(C)(C)OC(=O)NCCCC[C@H](NC(=O)OC1C/C(=C\c2ccc([N+](=O)[O-])cc2)C(=O)/C(=C/c2ccc([N+](=O)[O-])cc2)C1)C(=O)O (stereo partly drawn) [Compound T105]
[1]
  CTE Cell viability MTT assay: no observed cytotoxic effect and n/o
SARS-CoV-2 M^pro
  IC50: > 100 µM
SARS-CoV-2 PL^pro [2]
  IC50: > 100 µM
[3]; [8]
  EC50: > 30 µM
[3]; [13]
  EC50 Plaque reduction assay: no antiviral effect was observed and n/o
SARS-CoV-2 PL^pro [4]
  IC50: > 100 µM

## CC(C)C[C@H](NC(=O)OC1C/C(=C\c2ccc([N+](=O)[O-])cc2)C(=O)/C(=C/c2ccc([N+](=O)[O-])cc2)C1)C(N)=O (stereo partly drawn) [Compound T120]
[1]
  CTE Cell viability MTT assay: >10.0 µM
SARS-CoV-2 M^pro
  IC50: > 100 µM
[3]; [8]
  EC50: 3.4 µM
[3]; [11]
  EC50: 3.43 µM
VERO-E6 cells
  CTE in VERO-E6 cells: > 10 µM and 10 to 15 µM
SARS-CoV-2 PL^pro [4]; [12]
  IC50: < 100 µM

## NC(=O)[C@H](Cc1ccccc1)NC(=O)OC1C/C(=C\c2ccc([N+](=O)[O-])cc2)C(=O)/C(=C/c2ccc([N+](=O)[O-])cc2)C1 (stereo partly drawn) [Compound T121]
[1]
  CTE Cell viability MTT assay: >10.0 to 15.0 µM
SARS-CoV-2 M^pro
  IC50: > 100 µM
SARS-CoV-2 PL^pro [2]
  IC50: > 100 µM
[3]; [8]
  EC50: 8.4 µM
[3]; [11]
  EC50: 8.39 µM
VERO-E6 cells
  CTE in VERO-E6 cells: 10 to 15 µM
SARS-CoV-2 PL^pro [4]
  IC50: > 100 µM

## NCCCNC(=O)OC1C/C(=C\c2ccc([N+](=O)[O-])cc2)C(O)/C(=C/c2ccc([N+](=O)[O-])cc2)C1 (stereo not drawn) [Compound T122]
[1]
  CTE Cell viability MTT assay: >30.0 µM
SARS-CoV-2 M^pro
  IC50: > 100 µM
[3]; [8]
  EC50: 17 µM
[3]; [11]
  EC50: 17 µM
VERO-E6 cells
  CTE in VERO-E6 cells: > 30 µM
SARS-CoV-2 PL^pro [4]; [12]
  IC50: < 100 µM

## COc1cc(/C=C2\CC(OC(=O)NCCCN)C/C(=C\c3ccc(O)c(OC)c3)C2=O)ccc1O (stereo not drawn) [Compound T123]
SARS-CoV-2 M^pro; [6]
  IC50: > 100 µM
SARS-CoV-2 PL^pro [2]; [7]
  IC50: 75 µM
[3]; [13]
  EC50 Plaque reduction assay: no antiviral effect was observed and did not show any inhibitory efficiency and n/o
SARS-CoV-2 PL^pro [4]; [9]
  IC50: 60 µM

## CC(C)C[C@H](N)C(=O)NCCCNC(=O)OC1C/C(=C\c2ccc([N+](=O)[O-])cc2)C(=O)/C(=C/c2ccc([N+](=O)[O-])cc2)C1 (stereo partly drawn) [Compound T124]
[1]
  CTE Cell viability MTT assay: >30.0 µM
SARS-CoV-2 M^pro
  IC50: > 100 µM
SARS-CoV-2 PL^pro [2]
  IC50: > 100 µM
[3]; [8]
  EC50: 15.9 µM
[3]; [11]
  EC50: 15.9 µM
VERO-E6 cells
  CTE in VERO-E6 cells: > 30 µM
SARS-CoV-2 PL^pro [4]
  IC50: > 100 µM

## O=[N+]([O-])c1ccc(/C=C2\CC(O)C/C(=C\c3ccc([N+](=O)[O-])cc3)C2O)cc1 (stereo not drawn) [Compound T125]
[1]
  CTE Cell viability MTT assay: no observed cytotoxic effect and n/o
SARS-CoV-2 M^pro
  IC50: > 100 µM
[3]; [13]
  EC50 Plaque reduction assay: no antiviral effect was observed and did not show any inhibitory efficiency and no antiviral activity and n/o
SARS-CoV-2 PL^pro [4]; [12]
  IC50: < 100 µM

## Cc1ccc(/C=C2\CNC/C(=C\c3ccc(C)cc3)C2=O)cc1 [NSC63283]
PL^pro
  IC50: > 100 µM

## O=C1/C(=C/c2ccc([N+](=O)[O-])cc2)CNC/C1=C\c1ccc([N+](=O)[O-])cc1 [RA-9, reference compound]
[1]
  CTE Cell viability MTT assay: >30.0 µM
[3]; [8]
  EC50: 12.1 µM

## N[C@@H](Cc1ccccc1)C(=O)N1C/C(=C\c2ccc(Cl)c(Cl)c2)C(=O)/C(=C/c2ccc(Cl)c(Cl)c2)C1 [RA-190, reference compound]
SARS-CoV-2 M^pro; [6]
  IC50: > 100 µM
SARS-CoV-2 PL^pro [2]; [7]
  IC50: > 100 µM
[3]; [10]
  EC50: 3 µM
SARS-CoV-2 PL^pro [4]; [9]
  IC50: > 100 µM

## CC(C)(C)[C@H](NC(=O)C(F)(F)F)C(=O)N1C[C@H]2[C@@H]([C@H]1C(=O)N[C@H](C#N)C[C@@H]1CCNC1=O)C2(C)C [nirmatrelvir]
[5]
  protection against severe COVID-19 and hospitalisation: approximately 90%
